The subject of the test is CD2F1 mice, L1210 leukemia ip, survival T/C. As to the kind of experiment: NCI In Vivo Anticancer Drug Screen. Data for tumor model L1210 Leukemia (intraperitoneal) in CD2F1 (CDF1) mice. The following applies: higher = longer survival. A digest of the protocol: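 Transplantable tumor in mice; compound-treated vs vehicle-treated groups. Read-out = treated/control ratio of the measured endpoint.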

Setting [1] is: endpoint: mean survival time, dose: 25.0 mg/kg/injection, schedule: Q01DX009 (ip), vehicle: saline with Tween-80.
Setting [2] is: endpoint: mean survival time, dose: 50.0 mg/kg/injection, schedule: Q01DX009 (ip), vehicle: saline with Tween-80.
Where [3] appears, read: endpoint: mean survival time, dose: 100.0 mg/kg/injection, schedule: Q01DX009 (ip), vehicle: saline with Tween-80.
[4] abbreviates: endpoint: mean survival time, dose: 100.0 mg/kg/injection, schedule: Q04DX002 (ip), vehicle: saline with Tween-80.

“And” between values parts separate entries of the source, which are not always exact repeats. Identical values can stand only once. Inconclusive results and toxic doses are left out.

As for `S=c1nc[nH]c2nc[nH]c12.[W]`, the T/C is, setting by setting: (endpoint: median survival time, dose: 60.0 mg/kg/injection, schedule: Q01DX009 (ip), vehicle: water) 151 % of control (2×) and 169 % of control; (endpoint: median survival time, dose: 60.0 mg/kg/injection, schedule: Q## X009 (ip), vehicle: water) 169 % of control; (endpoint: median survival time, dose: 80.0 mg/kg/injection, schedule: Q01DX009 (ip), vehicle: water) 164 % of control and 167 % of control (2×); (endpoint: median survival time, dose: 80.0 mg/kg/injection, schedule: Q## X009 (ip), vehicle: water) 164 % of control; (endpoint: median survival time, dose: 100.0 mg/kg/injection, schedule: Q01DX009 (ip), vehicle: water) 154 % of control; (endpoint: median survival time, dose: 100.0 mg/kg/injection, schedule: Q01DX009 (other), vehicle: water) 154 % of control. For the same compound, the T/C reads like this: (endpoint: median survival time, dose: 120.0 mg/kg/injection, schedule: Q01DX009 (ip), vehicle: water) 158 % of control (2×) and 164 % of control; (endpoint: median survival time, dose: 120.0 mg/kg/injection, schedule: Q01DX009 (other), vehicle: water) 164 % of control; (endpoint: median survival time, dose: 140.0 mg/kg/injection, schedule: Q01DX009 (ip), vehicle: water) 163 % of control; (endpoint: median survival time, dose: 140.0 mg/kg/injection, schedule: Q## X009 (ip), vehicle: water) 163 % of control; (endpoint: median survival time, dose: 160.0 mg/kg/injection, schedule: Q01DX009 (ip), vehicle: water) 164 % of control; (endpoint: median survival time, dose: 160.0 mg/kg/injection, schedule: Q01DX009 (other), vehicle: water) 164 % of control.
As for `CCCNc1ccc(S(=O)(=O)c2ccc(N)cc2)cc1`, the T/C reads like this: under setting [1], 95 % of control; under setting [2], 95 % of control; under setting [3], 89 % of control.
With `CCCCCC(=O)O[C@]1(C(C)=O)CC[C@H]2[C@@H]3CCC4=CC(=O)CC[C@]4(C)[C@H]3CC[C@@]21C`, the T/C runs as follows: (endpoint: median survival time, dose: 25.0 mg/kg/injection, schedule: Q01DX009 (ip), vehicle: saline with Tween-80) 109 % of control; (endpoint: median survival time, dose: 50.0 mg/kg/injection, schedule: Q01DX009 (ip), vehicle: saline with Tween-80) 96 % of control; (endpoint: median survival time, dose: 100.0 mg/kg/injection, schedule: Q01DX009 (ip), vehicle: saline with Tween-80) 97 % of control; (endpoint: median survival time, dose: 200.0 mg/kg/injection, schedule: Q01DX009 (ip), vehicle: saline with Tween-80) 95 % of control; (endpoint: median survival time, dose: 400.0 mg/kg/injection, schedule: Q01DX009 (ip), vehicle: saline with Tween-80) 93 % of control.
Consider `CCCCCCCCCCCCSCCC(=O)O`, for which the T/C was 98 % of control (endpoint: mean survival time, dose: 100.0 mg/kg/injection, schedule: Q04DX003 (ip), vehicle: saline); 98 % of control (endpoint: mean survival time, dose: 200.0 mg/kg/injection, schedule: Q04DX003 (ip), vehicle: saline); 97 % of control (endpoint: mean survival time, dose: 400.0 mg/kg/injection, schedule: Q04DX003 (ip), vehicle: saline).
On to `C(=N\Nc1nn[nH]n1)/c1ccccc1`, for which the T/C is, setting by setting: under setting [1], 105 % of control; under setting [2], 97 % of control; under setting [3], 108 % of control.
Regarding `O=C(O)c1ccc(C(=O)O)c(C(=O)O)c1.[NH-]C1CCCCC1[NH-].[Pd+2]`, the T/C (endpoint: mean survival time, dose: 9.36 mg/kg/injection, schedule: Q04DX003 (ip), vehicle: sodium bicarbonate) was 98 % of control; the T/C (endpoint: mean survival time, dose: 18.75 mg/kg/injection, schedule: Q04DX003 (ip), vehicle: sodium bicarbonate) is 101 % of control; the T/C (endpoint: mean survival time, dose: 75.0 mg/kg/injection, schedule: Q04DX003 (ip), vehicle: sodium bicarbonate) is 101 % of control; the T/C (endpoint: mean survival time, dose: 150.0 mg/kg/injection, schedule: Q04DX003 (ip), vehicle: sodium bicarbonate) is 101 % of control.
`Cc1ccc(C)c(Br)c1C`: the T/C reads like this: (endpoint: mean survival time, dose: 100.0 mg/kg/injection, schedule: Q01DX005 (ip), vehicle: saline with Tween-80) 97 % of control; (endpoint: mean survival time, dose: 200.0 mg/kg/injection, schedule: Q01DX005 (ip), vehicle: saline with Tween-80) 101 % of control; (endpoint: mean survival time, dose: 400.0 mg/kg/injection, schedule: Q01DX005 (ip), vehicle: saline with Tween-80) 97 % of control.
Turning to `CN(C)P(=O)(OP(=O)(N(C)C)N(C)C)N(C)C`, the T/C (endpoint: mean survival time, dose: 2.0 mg/kg/injection, schedule: Q04DX003 (ip), vehicle: saline) was 102 % of control; the T/C (endpoint: mean survival time, dose: 4.0 mg/kg/injection, schedule: Q04DX003 (ip), vehicle: saline) was 98 % of control; the T/C (endpoint: mean survival time, dose: 8.0 mg/kg/injection, schedule: Q04DX003 (ip), vehicle: saline) was 100 % of control.
Take `O=C1/C(=C/c2ccccc2)C=C(c2ccccc2)N1Cc1ccccc1`: the T/C (endpoint: mean survival time, dose: 25.0 mg/kg/injection, schedule: Q04DX002 (ip), vehicle: saline with Tween-80) was 103 % of control; the T/C (endpoint: mean survival time, dose: 50.0 mg/kg/injection, schedule: Q04DX002 (ip), vehicle: saline with Tween-80) is 100 % of control; the T/C under setting [4] is 100 % of control.
For the compound `CN(C)C(=O)Nc1cccc2ccccc12`, the T/C is, setting by setting: under setting [4], 94 % of control; (endpoint: mean survival time, dose: 200.0 mg/kg/injection, schedule: Q04DX002 (ip), vehicle: saline with Tween-80) 105 % of control; (endpoint: mean survival time, dose: 400.0 mg/kg/injection, schedule: Q04DX002 (ip), vehicle: saline with Tween-80) 90 % of control.
On to `COC1OC(COS(=O)(=O)c2ccc(C)cc2)C(SC#N)C1OS(=O)(=O)c1ccc(C)cc1` (stereo unspecified), for which the T/C is, setting by setting: (endpoint: mean survival time, dose: 50.0 mg/kg/injection, schedule: Q01DX001 (ip), vehicle: saline) 91 % of control; (endpoint: mean survival time, dose: 100.0 mg/kg/injection, schedule: Q01DX001 (ip), vehicle: saline) 89 % of control; (endpoint: mean survival time, dose: 200.0 mg/kg/injection, schedule: Q01DX001 (ip), vehicle: saline) 95 % of control; (endpoint: mean survival time, dose: 400.0 mg/kg/injection, schedule: Q01DX001 (ip), vehicle: saline) 95 % of control.
`Cc1[nH]nc(C(F)(F)F)c1N=NN1CCOCC1`: the T/C (endpoint: mean survival time, dose: 75.0 mg/kg/injection, schedule: Q01DX001 (ip), vehicle: other) is 100 % of control; the T/C (endpoint: mean survival time, dose: 150.0 mg/kg/injection, schedule: Q01DX001 (ip), vehicle: other) was 109 % of control; the T/C (endpoint: mean survival time, dose: 300.0 mg/kg/injection, schedule: Q01DX001 (ip), vehicle: other) was 101 % of control.
`CCC(O)C[As](=O)(O)c1ccccc1OC` (stereo unspecified): the T/C (endpoint: mean survival time, dose: 6.25 mg/kg/injection, schedule: Q04DX003 (ip), vehicle: saline with Tween-80) is 97 % of control; the T/C (endpoint: mean survival time, dose: 12.5 mg/kg/injection, schedule: Q04DX003 (ip), vehicle: saline with Tween-80) was 97 % of control; the T/C (endpoint: mean survival time, dose: 25.0 mg/kg/injection, schedule: Q04DX003 (ip), vehicle: saline with Tween-80) is 103 % of control.
In the case of `C=C(C)CNC1=C(C)C(=O)C2=C(C1=O)[C@H](COC(N)=O)[C@]1(OC)[C@@H]3N[C@@H]3CN21`, the T/C by setting is: (endpoint: mean survival time, dose: 1.5 mg/kg/injection, schedule: Q01DX001 (ip), vehicle: distilled water + Tween-80) 119 % of control; (endpoint: mean survival time, dose: 3.0 mg/kg/injection, schedule: Q01DX001 (ip), vehicle: distilled water + Tween-80) 117 % of control; (endpoint: mean survival time, dose: 12.0 mg/kg/injection, schedule: Q01DX001 (ip), vehicle: distilled water + Tween-80) 101 % of control.
Take `CCC/C=C/C=C/C(=O)OC1/C(=C/C(=O)OC)CC2CC(C(C)O)OC(=O)CC(O)CC3CC(OC(C)=O)C(C)(C)C(O)(CC4C/C(=C/C(=O)OC)CC(/C=C/C(C)(C)C1(O)O2)O4)O3` (stereo unspecified): the T/C runs as follows: (endpoint: median survival time, dose: 18.75 micrograms/kg/injection, schedule: Q01DX009 (ip), vehicle: saline + alcohol) 113 % of control and 117 % of control; (endpoint: median survival time, dose: 37.5 micrograms/kg/injection, schedule: Q01DX009 (ip), vehicle: saline + alcohol) 124 % of control; (endpoint: median survival time, dose: 150.0 micrograms/kg/injection, schedule: Q01DX009 (ip), vehicle: saline + alcohol) 151 % of control.
Take `O=C1C=CC(=O)N1CN1CCOCC1`: the T/C is 103 % of control (endpoint: mean survival time, dose: 4.37 mg/kg/injection, schedule: Q01DX009 (ip), vehicle: saline); 91 % of control (endpoint: mean survival time, dose: 8.75 mg/kg/injection, schedule: Q01DX009 (ip), vehicle: saline); 95 % of control (endpoint: mean survival time, dose: 12.5 mg/kg/injection, schedule: Q04DX003 (ip), vehicle: saline).
